Like-named read-outs stand apart in the source and are kept apart here.

Series [1] is classed as physicochemical. The protocol:
The maximum solubility in water was thus determined to be ca. 900 mg/mL. […] The tetrasodium salt of P^1,P^4-di(uridine 5′-) tetraphosphate was thus determined to have an excellent solubility and stability profile suitable for pharmaceutical applications. […]

In a further series the test system is rabbits. Description: Local ocular tolerance and subchronic ocular toxicity study in rabbits. It is filed as in vivo. As to conditions: multiple daily administrations over six weeks.
The next series concerns dogs. Kind of series: Single-dose acute intravenous toxicity study in dogs. Type of series: in vivo.
For another series, the system named is dog. Description: Single-dose acute inhalation toxicity study in dog. The settings on record: dogs. Type of series: in vivo.
The test system of series [2] is normal healthy male volunteers. Type of series: in vivo, human.
Procedure: Forty non-smokers and 35 smokers were evaluated in 5 dosing cohorts of 16 volunteers, comprised of 12 receiving a single aerosolized dose of P^1,P^4-di(uridine 5′-) tetraphosphate, tetrasodium salt (20-400 mg) and 4 receiving placebo (normal saline).
The test system of the next series is rat. Kind of series: Single-dose acute inhalation toxicity study in rat. The settings on record: rats. Type of series: in vivo.
Series [3] can be described thus: Nonclinical toxicologic profile (overall conclusion from the toxicity studies).
Source text: (§1) A study in rabbits examined local ocular tolerance and subchronic ocular toxicity after multiple daily administrations over a six-week period.
(§2) A study in rabbits examines local ocular tolerance and subchronic ocular toxicity after multiple daily administrations over a six-week period.

Source text for rabbits: as §1, §2

As to “P^1,P^4-di(uridine 5′-)tetraphosphate, tetrasodium salt”, in series [1], the degradation result is “less than 1.5%”, the “maximum solubility in water” value is “ca. 900 mg/mL”, the solubility profile result is “excellent” and the stability profile entry is on record as “excellent”. Besides, the “adverse findings in ocular toxicology studies” value in the series on rabbits is listed as “No adverse findings”. Besides, in the series with dogs, the acute toxicity result was “low degree of acute toxicity”. For the same substance, in the series with dog, the acute toxicity entry was “low degree of acute toxicity”. In addition, the “stimulating the expectoration of sputum compared to placebo” value in series [2] (conclusion) is on record as “effective”. For the same substance, the safety and tolerability entry in series [2] (in vivo) was “safe and well-tolerated”. Besides, the “effect to induce the expectoration of sputum” value in series [2] (non-smokers) was “observed”. Besides, the “stimulation of sputum expectoration over the next hour of sputum collection” value in series [2] (smokers) was “sustained”. Also, in the series on rat, the acute toxicity result is “low degree of acute toxicity”. The toxicology profile result in series [3] was “excellent toxicology profile with a wide safety margin”.
Consider “P^1,P^4-di(uridine 5′-)tetraphosphate, monopotassiumtrilithium salt”, for which the stability profile entry in series [1] was “excellent”. In the series on rabbits (present-tense example), the “adverse findings in ocular toxicology studies” value is given as “No adverse findings”. For the same substance, in series [3] (present-tense example), the toxicology profile entry is on record as “excellent toxicology profile with a wide safety margin”.
As to “P^1,P^4-di(uridine 5′-)tetraphosphate, tetralithium salt”, the stability profile result in series [1] was “excellent”. In the series on rabbits (present-tense example), the “adverse findings in ocular toxicology studies” value is recorded as “No adverse findings”. Moreover, in series [3] (present-tense example), the toxicology profile result is listed as “excellent toxicology profile with a wide safety margin”.
In the case of “P^1,P^4-di(uridine 5′-)tetraphosphate, disodiumdipotassium salt”, the stability profile result in series [1] is recorded as “excellent”. In the series with rabbits (present-tense example), the “adverse findings in ocular toxicology studies” value is reported as “No adverse findings”. Moreover, the toxicology profile result in series [3] (present-tense example) is reported as “excellent toxicology profile with a wide safety margin”.
As to “P^1,P^4-di(uridine 5′-)tetraphosphate, tetrapotassium salt”, the stability profile result in series [1] is “excellent”. Also, the “adverse findings in ocular toxicology studies” value in the series on rabbits (present-tense example) is “No adverse findings”. In series [3] (present-tense example), the toxicology profile result is listed as “excellent toxicology profile with a wide safety margin”.
On to “P^1,P^4-di(uridine 5′-)tetraphosphate, monolithiummonopotassiumdisodium salt”, for which the stability profile result in series [1] is recorded as “excellent”.

The record behind these values is patent US7939510B2, “Di(uridine 5′-)tetraphosphate and salts thereof” (priority 1997, dated 2011).
